The NIST ThermoML archive (doi:10.1016/j.jct.2016.08.005)
± gives the expanded uncertainty stated by the source.

Conditions: Liquid, Vibrating tube method

Cc1cccs1 [2-methylthiophene]
Conditions | mass density [kg/m3]
283.15 K, 100 kPa | 1030.98 ± 0.53
283.15 K, 2000 kPa | 1032.44 ± 0.53
283.15 K, 5000 kPa | 1034.69 ± 0.53
283.15 K, 7000 kPa | 1036.18 ± 0.53
283.15 K, 10000 kPa | 1038.39 ± 0.53
283.15 K, 15000 kPa | 1041.92 ± 0.54
283.15 K, 20000 kPa | 1045.36 ± 0.54
283.15 K, 25000 kPa | 1048.69 ± 0.54
283.15 K, 30000 kPa | 1051.93 ± 0.55
283.15 K, 35000 kPa | 1055.07 ± 0.56
283.15 K, 40000 kPa | 1058.12 ± 0.56
283.15 K, 45000 kPa | 1061.09 ± 0.57
283.15 K, 50000 kPa | 1063.97 ± 0.58
283.15 K, 55000 kPa | 1066.8 ± 0.59
283.15 K, 60000 kPa | 1069.53 ± 0.6
283.15 K, 65000 kPa | 1072.21 ± 0.61
288.15 K, 100 kPa | 1025.61 ± 0.53
288.15 K, 2000 kPa | 1027.12 ± 0.53
288.15 K, 5000 kPa | 1029.45 ± 0.53
288.15 K, 7000 kPa | 1030.97 ± 0.53
288.15 K, 10000 kPa | 1033.22 ± 0.53
288.15 K, 15000 kPa | 1036.86 ± 0.53
288.15 K, 20000 kPa | 1040.39 ± 0.54
288.15 K, 25000 kPa | 1043.79 ± 0.54
288.15 K, 30000 kPa | 1047.1 ± 0.55
288.15 K, 35000 kPa | 1050.32 ± 0.55
288.15 K, 40000 kPa | 1053.43 ± 0.56
288.15 K, 45000 kPa | 1056.47 ± 0.57
288.15 K, 50000 kPa | 1059.42 ± 0.58
288.15 K, 55000 kPa | 1062.27 ± 0.58
288.15 K, 60000 kPa | 1065.07 ± 0.59
288.15 K, 65000 kPa | 1067.79 ± 0.6
293.15 K, 100 kPa | 1020.2 ± 0.52
293.15 K, 2000 kPa | 1021.76 ± 0.52
293.15 K, 5000 kPa | 1024.16 ± 0.53
293.15 K, 7000 kPa | 1025.73 ± 0.53
293.15 K, 10000 kPa | 1028.04 ± 0.53
293.15 K, 15000 kPa | 1031.77 ± 0.53
293.15 K, 20000 kPa | 1035.39 ± 0.54
293.15 K, 25000 kPa | 1038.88 ± 0.54
293.15 K, 30000 kPa | 1042.27 ± 0.54
293.15 K, 35000 kPa | 1045.56 ± 0.55
293.15 K, 40000 kPa | 1048.68 ± 0.56
293.15 K, 45000 kPa | 1051.85 ± 0.56
293.15 K, 50000 kPa | 1054.87 ± 0.57
293.15 K, 55000 kPa | 1057.79 ± 0.58
293.15 K, 60000 kPa | 1060.64 ± 0.59
293.15 K, 65000 kPa | 1063.42 ± 0.6
298.15 K, 100 kPa | 1014.79 ± 0.52
298.15 K, 2000 kPa | 1016.39 ± 0.52
298.15 K, 5000 kPa | 1018.85 ± 0.52
298.15 K, 7000 kPa | 1020.48 ± 0.53
298.15 K, 10000 kPa | 1022.84 ± 0.53
298.15 K, 15000 kPa | 1026.7 ± 0.53
298.15 K, 20000 kPa | 1030.4 ± 0.53
298.15 K, 25000 kPa | 1033.98 ± 0.54
298.15 K, 30000 kPa | 1037.45 ± 0.54
298.15 K, 35000 kPa | 1040.82 ± 0.55
298.15 K, 40000 kPa | 1044.09 ± 0.55
298.15 K, 45000 kPa | 1047.25 ± 0.56
298.15 K, 50000 kPa | 1050.33 ± 0.56
298.15 K, 55000 kPa | 1053.31 ± 0.57
298.15 K, 60000 kPa | 1056.23 ± 0.58
298.15 K, 65000 kPa | 1059.07 ± 0.59
303.15 K, 100 kPa | 1009.39 ± 0.52
303.15 K, 2000 kPa | 1011.03 ± 0.52
303.15 K, 5000 kPa | 1013.57 ± 0.52
303.15 K, 7000 kPa | 1015.23 ± 0.52
303.15 K, 10000 kPa | 1017.69 ± 0.53
303.15 K, 15000 kPa | 1021.62 ± 0.53
303.15 K, 20000 kPa | 1025.42 ± 0.53
303.15 K, 25000 kPa | 1029.11 ± 0.53
303.15 K, 30000 kPa | 1032.66 ± 0.54
303.15 K, 35000 kPa | 1036.1 ± 0.54
303.15 K, 40000 kPa | 1039.44 ± 0.55
303.15 K, 45000 kPa | 1042.68 ± 0.55
303.15 K, 50000 kPa | 1045.81 ± 0.56
303.15 K, 55000 kPa | 1048.89 ± 0.57
303.15 K, 60000 kPa | 1051.84 ± 0.58
303.15 K, 65000 kPa | 1054.72 ± 0.58
308.15 K, 100 kPa | 1003.95 ± 0.52
308.15 K, 2000 kPa | 1005.62 ± 0.52
308.15 K, 5000 kPa | 1008.23 ± 0.52
308.15 K, 7000 kPa | 1009.96 ± 0.52
308.15 K, 10000 kPa | 1012.46 ± 0.52
308.15 K, 15000 kPa | 1016.53 ± 0.53
308.15 K, 20000 kPa | 1020.43 ± 0.53
308.15 K, 25000 kPa | 1024.2 ± 0.53
308.15 K, 30000 kPa | 1027.84 ± 0.53
308.15 K, 35000 kPa | 1031.36 ± 0.54
308.15 K, 40000 kPa | 1034.78 ± 0.54
308.15 K, 45000 kPa | 1038.08 ± 0.55
308.15 K, 50000 kPa | 1041.29 ± 0.56
308.15 K, 55000 kPa | 1044.4 ± 0.56
308.15 K, 60000 kPa | 1047.43 ± 0.57
308.15 K, 65000 kPa | 1050.39 ± 0.58
313.15 K, 100 kPa | 998.5 ± 0.52
313.15 K, 2000 kPa | 1000.23 ± 0.52
313.15 K, 5000 kPa | 1002.93 ± 0.52
313.15 K, 7000 kPa | 1004.7 ± 0.52
313.15 K, 10000 kPa | 1007.28 ± 0.52
313.15 K, 15000 kPa | 1011.45 ± 0.52
313.15 K, 20000 kPa | 1015.45 ± 0.53
313.15 K, 25000 kPa | 1019.32 ± 0.53
313.15 K, 30000 kPa | 1023.04 ± 0.53
313.15 K, 35000 kPa | 1026.65 ± 0.54
313.15 K, 40000 kPa | 1030.14 ± 0.54
313.15 K, 45000 kPa | 1033.52 ± 0.55
313.15 K, 50000 kPa | 1036.79 ± 0.55
313.15 K, 55000 kPa | 1039.99 ± 0.56
313.15 K, 60000 kPa | 1043.07 ± 0.56
313.15 K, 65000 kPa | 1046.08 ± 0.57
318.15 K, 100 kPa | 993.03 ± 0.52
318.15 K, 2000 kPa | 994.81 ± 0.52
318.15 K, 5000 kPa | 997.59 ± 0.52
318.15 K, 7000 kPa | 999.4 ± 0.52
318.15 K, 10000 kPa | 1002.05 ± 0.52
318.15 K, 15000 kPa | 1006.33 ± 0.52
318.15 K, 20000 kPa | 1010.45 ± 0.52
318.15 K, 25000 kPa | 1014.42 ± 0.53
318.15 K, 30000 kPa | 1018.23 ± 0.53
318.15 K, 35000 kPa | 1021.93 ± 0.53
318.15 K, 40000 kPa | 1025.49 ± 0.54
318.15 K, 45000 kPa | 1028.94 ± 0.54
318.15 K, 50000 kPa | 1032.3 ± 0.55
318.15 K, 55000 kPa | 1035.54 ± 0.55
318.15 K, 60000 kPa | 1038.69 ± 0.56
318.15 K, 65000 kPa | 1041.75 ± 0.57
323.15 K, 100 kPa | 987.55 ± 0.52
323.15 K, 2000 kPa | 989.38 ± 0.52
323.15 K, 5000 kPa | 992.24 ± 0.52
323.15 K, 7000 kPa | 994.11 ± 0.52
323.15 K, 10000 kPa | 996.84 ± 0.52
323.15 K, 15000 kPa | 1001.25 ± 0.52
323.15 K, 20000 kPa | 1005.47 ± 0.52
323.15 K, 25000 kPa | 1009.52 ± 0.52
323.15 K, 30000 kPa | 1013.45 ± 0.53
323.15 K, 35000 kPa | 1017.21 ± 0.53
323.15 K, 40000 kPa | 1020.87 ± 0.53
323.15 K, 45000 kPa | 1024.41 ± 0.54
323.15 K, 50000 kPa | 1027.81 ± 0.54
323.15 K, 55000 kPa | 1031.14 ± 0.55
323.15 K, 60000 kPa | 1034.36 ± 0.55
323.15 K, 65000 kPa | 1037.48 ± 0.56
328.15 K, 100 kPa | 982.01 ± 0.52
328.15 K, 2000 kPa | 983.93 ± 0.52
328.15 K, 5000 kPa | 986.87 ± 0.52
328.15 K, 7000 kPa | 988.79 ± 0.52
328.15 K, 10000 kPa | 991.61 ± 0.52
328.15 K, 15000 kPa | 996.12 ± 0.52
328.15 K, 20000 kPa | 1000.47 ± 0.52
328.15 K, 25000 kPa | 1004.64 ± 0.52
328.15 K, 30000 kPa | 1008.65 ± 0.52
328.15 K, 35000 kPa | 1012.52 ± 0.53
328.15 K, 40000 kPa | 1016.24 ± 0.53
328.15 K, 45000 kPa | 1019.86 ± 0.53
328.15 K, 50000 kPa | 1023.37 ± 0.54
328.15 K, 55000 kPa | 1026.73 ± 0.54
328.15 K, 60000 kPa | 1030.01 ± 0.55
328.15 K, 65000 kPa | 1033.2 ± 0.55
333.15 K, 100 kPa | 976.49 ± 0.52
333.15 K, 2000 kPa | 978.46 ± 0.52
333.15 K, 5000 kPa | 981.49 ± 0.52
333.15 K, 7000 kPa | 983.47 ± 0.52
333.15 K, 10000 kPa | 986.36 ± 0.52
333.15 K, 15000 kPa | 991.02 ± 0.52
333.15 K, 20000 kPa | 995.46 ± 0.52
333.15 K, 25000 kPa | 999.74 ± 0.52
333.15 K, 30000 kPa | 1003.86 ± 0.52
333.15 K, 35000 kPa | 1007.82 ± 0.52
333.15 K, 40000 kPa | 1011.63 ± 0.53
333.15 K, 45000 kPa | 1015.34 ± 0.53
333.15 K, 50000 kPa | 1018.9 ± 0.53
333.15 K, 55000 kPa | 1022.36 ± 0.54
333.15 K, 60000 kPa | 1025.71 ± 0.54
333.15 K, 65000 kPa | 1028.94 ± 0.55
338.15 K, 100 kPa | 970.87 ± 0.52
338.15 K, 2000 kPa | 972.92 ± 0.52
338.15 K, 5000 kPa | 976.06 ± 0.52
338.15 K, 7000 kPa | 978.09 ± 0.52
338.15 K, 10000 kPa | 981.08 ± 0.52
338.15 K, 15000 kPa | 985.87 ± 0.52
338.15 K, 20000 kPa | 990.45 ± 0.52
338.15 K, 25000 kPa | 994.85 ± 0.52
338.15 K, 30000 kPa | 999.06 ± 0.52
338.15 K, 35000 kPa | 1003.09 ± 0.52
338.15 K, 40000 kPa | 1007.02 ± 0.52
338.15 K, 45000 kPa | 1010.79 ± 0.53
338.15 K, 50000 kPa | 1014.44 ± 0.53
338.15 K, 55000 kPa | 1017.97 ± 0.53
338.15 K, 60000 kPa | 1021.38 ± 0.54
338.15 K, 65000 kPa | 1024.7 ± 0.54
